Where “and” joins values, the source holds several entries; their conditions need not be identical. Equal values may be shown once.
Tested on: Rattus norvegicus
[1] = short-term, duration: 4 weeks, inhalation, F, Wistar, Adrenal: Adrenal Cortex, Minimal Diffuse Hypertrophy + Blood: Calcium (CA), Blood + Blood: Chloride (CL), Blood + Blood: Inorganic …
[2] = short-term, duration: 4 weeks, inhalation, F, Wistar, Blood: Albumin/Globulin (A/G) Ratio + Blood: Globulin (G), Blood + Blood: Glucose (GLU), Blood + Blood: Potassium (K), Blood + Kidney: Urea…
[3] = short-term, duration: 4 weeks, inhalation, M, Wistar, Adrenal: Adrenal Cortex, Minimal Diffuse Hypertrophy + Blood: Calcium (CA), Blood + Blood: Total Protein (TP), Blood + Liver: Aspartate …
[4] = short-term, duration: 4 weeks, inhalation, M, Wistar, Blood: Chloride (CL), Blood + Blood: Glucose (GLU), Blood + Blood: Hematocrit (HCT) + Blood: Hemoglobin (HGB) + Blood: Red Blood Cell (RBC…
[5] = short-term, duration: 28 days, oral, gavage, F, Sprague-Dawley, Blood: Hematocrit (HCT) + Blood: Hemoglobin (HGB) + Blood: Red Blood Cell (RBC) + Blood: White Blood Cell (WBC) + Kidney: Total Protein (TP…
[6] = short-term, duration: 28 days, oral, gavage, F, Sprague-Dawley, Blood: Lymphocyte + Blood: Mean Corpuscular Volume (MCV) + Blood: Monocytes + Central Nervous System: Spontaneous Locomotion + Intestine: …
[7] = short-term, duration: 28 days, oral, gavage, F, Sprague-Dawley, Blood: Prothrombin Time (PT) + Renal: Albumin (A), Urine
[8] = short-term, duration: 28 days, oral, gavage, M, Sprague-Dawley, Blood: Hematocrit (HCT) + Blood: Hemoglobin (HGB) + Blood: White Blood Cell (WBC) + Central Nervous System: Spontaneous Locomotion + Hair/…
[9] = short-term, duration: 28 days, oral, gavage, M, Sprague-Dawley, Blood: Mean Cell Hemoglobin (MCH) + Blood: Mean Corpuscular Hemoglobin Concentration (MCHC) + Blood: Mean Corpuscular Volume (MCV) + Blood: …
[10] = short-term, duration: 28 days, oral, gavage, M, Sprague-Dawley, Hair/Fur: Alopecia + Lung: Respiration Rate
[11] = short-term, duration: 28 days, oral, gavage, M, Sprague-Dawley, Liver: Liver Weight, Relative
[12] = developmental, duration: 14 days, oral, gavage, M/F, Hsd. Han: WIST, generation: F1, F1: Developmental: Bone: Skeletal Variations + F1: Developmental: Placenta: Placenta Weight, Absolute + F1: Developmental: Placenta: …
[13] = developmental, duration: 14 days, oral, gavage, M/F, Wistar Han, generation: F1, F1: Placenta: Placenta Weight, Absolute + F1: Whole Body: Body Weight, Fetal + F1: Whole Body: Fetal Skeletal Variations
[14] = reproduction developmental, duration: 14 days, oral, gavage, F, Hsd. Han: WIST, generation: P0, P0: Developmental: Uterus: Implantation + P0: Developmental: Uterus: Post-Implantation Loss + P0: Developmental: Uterus: Pre-Implantation …
[15] = reproduction developmental, duration: 14 days, oral, gavage, F, Wistar Han, generation: P0, P0: Kidney: Necropsy, Kidney Observation + P0: Small Intestine: Necropsy, Small Intestine Observation + P0: Stomach: Necropsy, Stomach …
[16] = short-term, duration: 28 days, oral, gavage, F, Sprague-Dawley, Adrenal: Adrenal Gland Weight, Absolute + Adrenal: Adrenal Gland Weight, Relative
[17] = short-term, duration: 28 days, oral, gavage, M/F, Sprague-Dawley, Liver: Liver Histopathology
[18] = short-term, duration: 28 days, oral, gavage, M, Sprague-Dawley, Adrenal: Adrenal Gland Weight, Absolute + Adrenal: Adrenal Gland Weight, Relative

Molecule FC(F)(I)C(F)(F)C(F)(F)C(F)(F)C(F)(F)C(F)(F)I [1,6-Diiodoperfluorohexane] has an LOAEL [1] of 45.1 mg/m3, an NOAEL [1] of 14.4 mg/m3 and an NOAEL (short-term, duration: 4 weeks, inhalation, F, Wistar, Adrenal: Adrenal Gland Weight, Relative + Basophils + Blood: Activated Partial Thromboplastin Time (APTT) + Blood: Mean Corpuscular …) of 45.1 mg/m3. The LOAEL [2] was 14.4 mg/m3, the NOAEL [2] was 4.48 mg/m3 and 4.49 mg/m3 and the LOAEL (short-term, duration: 4 weeks, inhalation, F, Wistar, Blood: Cholesterol (CHOL), Total, Blood + Blood: Hematocrit (HCT) + Blood: Hemoglobin (HGB) + Blood: Red Blood Cell (RBC) + Brain: Brain …) was 4.48 mg/m3 and 4.49 mg/m3. For the same molecule, the LOAEL [3] was 45.1 mg/m3, the NOAEL [3] was 14.4 mg/m3 and the LOAEL (short-term, duration: 4 weeks, inhalation, M, Wistar, Adrenal: Adrenal Gland Weight, Relative + Blood: Globulin (G), Blood + Blood: Inorganic Phosphorous (PHOS), Blood + Blood: Reticulocytes + …) was 4.48 mg/m3 and 4.49 mg/m3. For the same molecule, the NOAEL (short-term, duration: 4 weeks, inhalation, M, Wistar, Basophils + Blood: Activated Partial Thromboplastin Time (APTT) + Blood: Albumin/Globulin (A/G) Ratio + Blood: Mean Corpuscular Hemoglobin (…) was 45.1 mg/m3, the LOAEL [4] was 14.4 mg/m3 and the NOAEL [4] was 4.48 mg/m3 and 4.49 mg/m3. The NOAEL (short-term, duration: 28 days, oral, gavage, F, Sprague-Dawley, Adrenal: Adrenal Gland Histopathology + Adrenal: Adrenal Gland Weight, Relative + Blood: Globulin (G) + Blood: Phosphorous (inorganic) (PHOS…) was 20 mg/kg-day, the LOAEL (short-term, duration: 28 days, oral, gavage, F, Sprague-Dawley, Blood: Activated Partial Thromboplastin Time (APTT) + Blood: Albumin/Globulin (A/G) Ratio + Blood: Mean Cell Hemoglobin (MCH) + Blood: Mean …) was 1 mg/kg-day and the LOAEL [5] was 3 mg/kg-day. For the same molecule, the NOAEL [5] was 1 mg/kg-day, the LOAEL [6] was 10 mg/kg-day and the NOAEL [6] was 3 mg/kg-day. The LOAEL [7] was 20 mg/kg-day, the NOAEL [7] was 10 mg/kg-day and the NOAEL (short-term, duration: 28 days, oral, gavage, M, Sprague-Dawley, Adrenal: Adrenal Gland Histopathology + Blood: Globulin (G) + Blood: Lymphocyte + Blood: Monocytes + Blood: Platelet Count (PLT) + Blood: …) was 20 mg/kg-day. The LOAEL (short-term, duration: 28 days, oral, gavage, M, Sprague-Dawley, Adrenal: Adrenal Gland Weight, Relative + Blood: Activated Partial Thromboplastin Time (APTT) + Blood: Albumin/Globulin (A/G) Ratio + Brain…) was 1 mg/kg-day, the LOAEL [8] was 3 mg/kg-day and the NOAEL [8] was 1 mg/kg-day. The LOAEL [9] was 10 mg/kg-day, the NOAEL [9] was 3 mg/kg-day and the LOAEL [10] was 20 mg/kg-day. For the same molecule, the NOAEL [10] was 10 mg/kg-day.

FC(F)C(F)(F)C(F)(F)C(F)(F)C(F)(F)C(F)(F)F [1H-Perfluorohexane] gave an NOAEL (developmental, duration: 20 days, parental, M/F, Wistar, generation: F1, F1: Thyroid: Thyroxine (T4) + F1: Trunk: Anogenital Distance + F1: Whole Body: Body Weight, Fetal + F1: Whole Body: Clinical Observations + …) of 1000 mg/kg-day, an NOAEL (reproduction developmental, duration: 20 days, parental, M, Wistar, generation: F1, F1: Trunk: Areola/Nipple Retention) of 1000 mg/kg-day and an NOAEL (reproduction developmental, duration: 29 days, oral, gavage, M, Wistar, generation: P0, P0: Epididymis: Epididymis Weight, Absolute + P0: Prostate: Prostate Weight, Absolute + P0: Seminal Vesicle: Seminal Vesicles Weight (w/o …) of 1000 mg/kg-day. It also gave an NOAEL (reproduction developmental, duration: 29 days, oral, gavage, M, Wistar, generation: P0, P0: Peripheral Nervous System: Functional Observational Battery Tests + P0: Thyroid: Thyroid Gland Weight, Absolute + P0: Thyroid: Thyroxine…) of 1000 mg/kg-day, an NOAEL (reproduction developmental, duration: 64 days, oral, gavage, F, Wistar, generation: P0, P0: Heart: Heart Gross Pathology + P0: Heart: Heart Histopathology + P0: Kidney: Kidney Gross Pathology + P0: Kidney: Kidney Histopathology…) of 1000 mg/kg-day and an NOAEL (reproduction developmental, duration: 64 days, oral, gavage, F, Wistar, generation: P0, P0: Testis: Ovary Histopathology + P0: Uterus: Estrous Cyclicity + P0: Uterus: Implantation + P0: Whole Body: Conception Index + P0: Whole …) of 1000 mg/kg-day. It also gave an NOAEL (short-term, duration: 28 days, oral, gavage, F, Sprague-Dawley, Adrenal: Adrenal Gland Histopathology + Adrenal: Adrenal Gland Weight, Relative + Blood: Hematology, Unspecified + Brain: Brain Weight, …) of 1000 mg/kg-day, an NOAEL (short-term, duration: 28 days, oral, gavage, M, Sprague-Dawley, Adrenal: Adrenal Gland Histopathology + Adrenal: Adrenal Gland Weight + Blood: Hematology, Unspecified + Brain: Brain Weight, Relative + …) of 1000 mg/kg-day and an LOAEL [11] of 1000 mg/kg-day. It also gave an NOAEL [11] of 200 mg/kg-day.

C=C(C)C(=O)OCCC(F)(F)C(F)(F)C(F)(F)C(F)(F)C(F)(F)C(F)(F)F [2-(Perfluorohexyl)ethyl methacrylate] was tested, and the LOAEL [12] was 1000 mg/kg-day, the NOAEL [12] was 320 mg/kg-day and the LEL [13] was 1000 mg/kg-day. For the same molecule, the NEL [13] was 320 mg/kg-day, the NEL (developmental, duration: 14 days, oral, gavage, M/F, Wistar Han, generation: F1, F1: Placenta: Placenta Weight, Relative + F1: Uterus: Fetuses, Dead + F1: Uterus: Fetuses, Live + F1: Whole Body: Fetal External …) was 1000 mg/kg-day and the LOAEL [14] was 1000 mg/kg-day. The NOAEL [14] was 320 mg/kg-day, the NOAEL (reproduction developmental, duration: 14 days, oral, gavage, F, Hsd. Han: WIST, generation: P0, P0: Reproductive: Ovary: Corpora Lutea) was 1000 mg/kg-day and the LEL [15] was 1000 mg/kg-day. It also gave an NEL [15] of 320 mg/kg-day, an NEL (reproduction developmental, duration: 14 days, oral, gavage, F, Wistar Han, generation: P0, P0: Ovary: Corpora Lutea + P0: Uterus: Implantation + P0: Uterus: Post-Implantation Loss + P0: Uterus: Pre-Implantation Loss + P0: Whole …) of 1000 mg/kg-day and an NEL (short-term, duration: 28 days, oral, gavage, F, Crl:CD(SD), Adrenal: Adrenal Gland Weight, Absolute + Adrenal: Adrenal Gland Weight, Absolute, Recovery + Adrenal: Adrenal Gland Weight, Relative + …) of 25 mg/kg-day. The NEL (short-term, duration: 28 days, oral, gavage, F, Crl:CD(SD), Liver: Liver Weight, Absolute + Liver: Liver Weight, Relative + Teeth: Decreased Iron Pigment, Ameloblasts (28 d)) was 5 mg/kg-day, the LEL (short-term, duration: 28 days, oral, gavage, F, Crl:CD(SD), Liver: Liver Weight, Absolute + Liver: Liver Weight, Relative + Teeth: Decreased Iron Pigment, Ameloblasts (28 d) + Teeth: Teeth, Mottled (…) was 25 mg/kg-day and the NEL (short-term, duration: 28 days, oral, gavage, M, Crl:CD(SD), Adrenal: Adrenal Gland Weight, Absolute + Adrenal: Adrenal Gland Weight, Absolute, Recovery + Adrenal: Adrenal Gland Weight, Relative + …) was 25 mg/kg-day. For the same molecule, the NEL (short-term, duration: 28 days, oral, gavage, M, Crl:CD(SD), Kidney: Kidney Weight, Relative + Teeth: Decreased Iron Pigment, Ameloblasts (28 d)) was 5 mg/kg-day and the LEL (short-term, duration: 28 days, oral, gavage, M, Crl:CD(SD), Kidney: Kidney Weight, Relative + Teeth: Decreased Iron Pigment, Ameloblasts (28 d) + Teeth: Teeth, Mottled (42 d)) was 25 mg/kg-day.

CCOC(F)(C(F)(F)C(F)(F)C(F)(F)F)C(F)(C(F)(F)F)C(F)(F)F (stereo not drawn) [3-Ethoxyperfluoro(2-methylhexane)] gave an NOAEL (developmental, duration: 26 days, parental, M/F, Sprague-Dawley, generation: F1, F1: Whole Body: Clinical Observations + F1: Whole Body: Litter Size + F1: Whole Body: Necropsy Appeared Normal + F1: Whole Body: Pup Body …) of 1000 mg/kg-day, an NOAEL (reproduction developmental, duration: 2 weeks, oral, gavage, F, Sprague-Dawley, generation: P0, P0: Ovary: Ovary, Non-Neoplastic Lesions + P0: Uterus: Estrous Cycle + P0: Uterus: Implantation + P0: Whole Body: Clinical Observations + P0…) of 1000 mg/kg-day and an NOAEL (reproduction developmental, duration: 2 weeks, oral, gavage, M, Sprague-Dawley, generation: P0, P0: Epididymis: Epididymis Weight, Absolute + P0: Epididymis: Epididymis Weight, Relative + P0: Epididymis: Epididymis, Non-Neoplastic …) of 1000 mg/kg-day. It also gave an LOAEL [16] of 1000 mg/kg-day, an NOAEL [16] of 200 mg/kg-day and an NOAEL (short-term, duration: 28 days, oral, gavage, F, Sprague-Dawley, Ovary: Ovary Weight, Absolute + Ovary: Ovary Weight, Relative + Spleen: Spleen Weight, Absolute) of 1000 mg/kg-day. The LOAEL (short-term, duration: 28 days, oral, gavage, F, Sprague-Dawley, Spleen: Spleen Weight, Relative) was 40 mg/kg-day, the NOAEL (short-term, duration: 28 days, oral, gavage, M/F, Sprague-Dawley, Blood: Clinical Chemistry, Unspecified + Kidney: Urinalysis, Unspecified + Whole Body: Body Weight Change + Whole Body: Clinical …) was 1000 mg/kg-day and the LOAEL [17] was 1000 mg/kg-day. For the same molecule, the NOAEL [17] was 200 mg/kg-day, the LOAEL [18] was 1000 mg/kg-day and the NOAEL [18] was 200 mg/kg-day. For the same molecule, the LOAEL (short-term, duration: 28 days, oral, gavage, M, Sprague-Dawley, Spleen: Spleen Weight, Absolute + Spleen: Spleen Weight, Relative) was 40 mg/kg-day.

From EPA's ToxValDB 9.5
